The values that follow come from patent publication US9115148B2, “Spirocyclic derivatives as histone deacetylase inhibitors” (DAC S.R.L., priority 2008, dated 2015).

The test system of test [1] is HDAC (nuclear fraction of Hela cells). Put plainly: Assay of enzyme inhibition of HDAC (BIOMOL Kit). The test is classed as biochemical. As to conditions: substrate 200 μM, 15 min at RT. A digest of the protocol:
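Enzyme source was HeLa nuclear fraction, incubated 15 min at RT with compound and an acetyl-lysine substrate at 200 μM. IC50 values were derived from concentration-response data.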

The test system of a further test is K562 cells. Description: Cell growth, CellTiter-Glo Luminescent Cell Viability Assay, K562. Format: cell-based. As to conditions: Homo sapiens, 72 h incubation, read-out: IC50 antiproliferative assay K562. A digest of the protocol: (§1)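 Exponentially growing cells exposed 72 h to a range of inhibitor concentrations. Viability measured as cellular ATP by CellTiter-Glo luminescence (2 min lysis, read after 10 min RT); IC50 calculated and binned into ranges (≤1.0, 1.0–3.0, ≥3.0 μM).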
In general terms: ATP-based viability assays read luminescence as a measure of living cells.

The next test deals with A549 cells. Description: Cell growth, CellTiter-Glo Luminescent Cell Viability Assay, A549. The test is classed as cell-based. As to conditions: Homo sapiens, 72 h incubation, read-out: IC50 antiproliferative assay A549. The method in brief: as §1
For a further test, the system named is HCT-116 cells. Put plainly: Cell growth, CellTiter-Glo Luminescent Cell Viability Assay, HCT-116. Format: cell-based. As to conditions: Homo sapiens, HCT116 cells, 72 h incubation, read-out: IC50 antiproliferative assay HCT116. The method in brief: as §1

SMILES strings stand for the structures. pIC50: −log10 of the molar value.

Consider `O=C(/C=C/c1ccc2c(c1)C(=O)CC1(CCN(C(=O)Nc3ccccc3)CC1)O2)NO` [Example 48, (E)-3-{1′-Phenylcarbamoyl-4-oxo-spiro[chromane-2,4′-piperidine]-6-yl}-N-hydroxy-acrylamide], for which the pIC50 (as a rule, −log10 of the IC50, conventionally taken in molar units) in test [1] is 6.00 to 7.00; in the test with K562 cells it was 5.52 to 6.00; in the test on A549 cells, at most 5.52; in the test on HCT-116 cells, 5.52 to 6.00.
Turning to `CC(=O)N1CCC2(CC1)CC(=O)c1cc(/C=C/C(=O)NO)ccc1O2` [Example 3, (E)-3-{1′-Acetyl-4-oxo-spiro[chromane-2,4′-piperidine]-6-yl}-N-hydroxy-acrylamide], the pIC50 is 6.00 to 7.00 in test [1], at most 5.52 with K562 cells, at most 5.52 with A549 cells and at most 5.52 in the test on HCT-116 cells.
`O=C(/C=C/c1ccc2c(c1)C(=O)CC1(CCN(c3ccccc3)CC1)O2)NO` [Example 7, (E)-3-{1′-Phenyl-4-oxo-spiro[chromane-2,4′-piperidine]-6-yl}-N-hydroxy-acrylamide]: the pIC50 in test [1] is 6.00 to 7.00; in the test on K562 cells, at least 6.00; with A549 cells, 5.52 to 6.00; in the test with HCT-116 cells, 5.52 to 6.00.
For `Cc1[nH]c2ccccc2c1CN1CCC2(CC1)CC(=O)c1cc(/C=C/C(=O)NO)ccc1O2` [Example 51, (E)-3-{1′-(2-Methyl-1H-indol-3-ylmethyl)-4-oxo-spiro[chromane-2,4′-piperidine]-6-yl}-N-hydroxy-acrylamide], the pIC50 was over 7.00 in test [1], at least 6.00 with K562 cells, at least 6.00 in the test with A549 cells and at least 6.00 with HCT-116 cells.
Turning to `CC(=O)N1CCC2(CC1)Oc1ccc(/C=C/C(=O)NO)cc1C2=O` [Example 22, (E)-3-{1′-Acetyl-3-oxo-spiro[benzofuran-2(3H), 4′-piperidin]-5-yl}-N-hydroxy-acrylamide], the pIC50 in test [1] is under 6.00; with K562 cells, at most 5.52; in the test with A549 cells, at most 5.52; in the test with HCT-116 cells, at most 5.52.
As to `COc1cccc(CN2CCC3(CC2)CC(=O)c2cc(/C=C/C(=O)NO)ccc2O3)c1` [Example 32, (E)-3-{1′-(3-Methoxy-benzyl)-4-oxo-spiro[chromane-2,4′-piperidine]-6-yl}-N-hydroxy-acrylamide], the pIC50 in test [1] was 6.00 to 7.00; in the test with K562 cells it was at least 6.00; with A549 cells it was 5.52 to 6.00; with HCT-116 cells it was at least 6.00.
For `O=C(/C=C/c1ccc2c(c1)C(=O)CC1(CCN(Cc3ccc(-c4ccccc4)cc3)CC1)O2)NO` [Example 52, (E)-3-{1′-(Biphenyl-4-ylmethyl)-4-oxo-spiro[chromane-2,4′-piperidine]-6-yl}-N-hydroxy-acrylamide], the pIC50 in test [1] was 6.00 to 7.00; with K562 cells, at least 6.00; in the test with A549 cells, 5.52 to 6.00; in the test with HCT-116 cells, at least 6.00.
For the molecule `O=C(/C=C/c1ccc2c(c1)C(=O)N(Cc1ccccc1)C1(CCN(Cc3ccc(F)cc3)CC1)O2)NO` [Example 83, (E)-3-{1′-(4-Fluoro-benzyl)-3,4-dihydro-3-benzyl-4-oxo-spiro[2H-(1,3)-benzoxazine-2,4′-piperidin]-6-yl}-N-hydroxy-acrylamide], the pIC50 in test [1] was 6.00 to 7.00; with K562 cells, 5.52 to 6.00; with A549 cells, at most 5.52; with HCT-116 cells, 5.52 to 6.00.
`O=C(/C=C/c1ccc2c(c1)C(=O)CC1(CCN(CCc3ccccc3F)CC1)O2)NO` [Example 59, (E)-3-{1′-[2-(2-Fluoro-phenyl)-ethyl]-4-oxo-spiro[chromane-2,4′-piperidine]-6-yl}-N-hydroxy-acrylamide]: the pIC50 was 6.00 to 7.00 in test [1], at least 6.00 in the test with K562 cells, at least 6.00 in the test on A549 cells and at least 6.00 with HCT-116 cells.
Take `CC(=O)N1CCC2(CC1)CC(=O)c1ccc(/C=C/C(=O)NO)cc1O2` [Example 10, (E)-3-{1′-Acetyl-4-oxo-spiro[chromane-2,4′-piperidine]-7-yl}-N-hydroxy-acrylamide]: the pIC50 is under 6.00 in test [1], at most 5.52 in the test with K562 cells, at most 5.52 with A549 cells and at most 5.52 with HCT-116 cells.
For `O=C(/C=C/c1ccc2c(c1)C(=O)CC1(CCN(Cc3ccncc3)CC1)O2)NO` [Example 42, (E)-3-{1′-(Pyridin-4-ylmethyl)-4-oxo-spiro[chromane-2,4′-piperidine]-6-yl}-N-hydroxy-acrylamide], the pIC50 is 6.00 to 7.00 in test [1], 5.52 to 6.00 in the test with K562 cells, 5.52 to 6.00 in the test on A549 cells and at least 6.00 in the test with HCT-116 cells.
With `CC(=O)NC1CC2(CCN(Cc3ccccc3)CC2)Oc2ccc(/C=C/C(=O)NO)cc21` (stereo not drawn) [Example 16, (E)-3-{1′-Benzyl-4-acetylamino-spiro[chromane-2,4′-piperidine]-6-yl}-N-hydroxy-acrylamide], the pIC50 was under 6.00 in test [1], at most 5.52 in the test on K562 cells, at most 5.52 with A549 cells and at most 5.52 in the test on HCT-116 cells.
For the molecule `O=C(/C=C/c1ccc2c(c1)C(=O)CC1(CCN(CCc3c[nH]c4ccccc34)CC1)O2)NO` [Example 49], the pIC50 in test [1] is over 7.00; in the test with K562 cells it was at least 6.00; with A549 cells, at least 6.00; in the test on HCT-116 cells it was at least 6.00.
As for `CN1C(=O)c2cc(/C=C/C(=O)NO)ccc2OC12CCN(Cc1ccc(F)cc1)CC2` [Example 75, (E)-3-{1′-(4-Fluoro-benzyl)-3,4-dihydro-3-methyl-4-oxo-spiro[2H-(1,3)-benzoxazine-2,4′-piperidin]-6-yl}-N-hydroxy-acrylamide], the pIC50 in test [1] is 6.00 to 7.00; in the test with K562 cells, at least 6.00; with A549 cells, 5.52 to 6.00; in the test on HCT-116 cells, at least 6.00.
As for `O=C(/C=C/c1ccc2c(c1)OC1(CCN(C(=O)c3ccccc3)CC1)CC2=O)NO` [Example 11, (E)-3-{1′-Benzoyl-4-oxo-spiro[chromane-2,4′-piperidine]-7-yl}-N-hydroxy-acrylamide], the pIC50 in test [1] was 6.00 to 7.00; with K562 cells, at most 5.52; in the test with A549 cells, at most 5.52; with HCT-116 cells, at most 5.52.
As to `CN1C(=O)c2cc(/C=C/C(=O)NO)ccc2OC12CCN(CCc1ccccc1)CC2` [Example 77, (E)-3-{1′-(2-Phenyl-ethyl)-3,4-dihydro-3-methyl-4-oxo-spiro[2H-(1,3)-benzoxazine-2,4′-piperidin]-6-yl}-N-hydroxy-acrylamide], the pIC50 in test [1] was 6.00 to 7.00; in the test on K562 cells it was at least 6.00; in the test with A549 cells, 5.52 to 6.00; with HCT-116 cells, 5.52 to 6.00.
Regarding `O=C(/C=C/c1ccc2c(c1)OC1(CCN(Cc3ccccc3)CC1)CC2=O)NO` [Example 9, (E)-3-{1′-Benzyl-4-oxo-spiro[chromane-2,4′-piperidine]-7-yl}-N-hydroxy-acrylamide], the pIC50 is under 6.00 in test [1], at most 5.52 with K562 cells, at most 5.52 with A549 cells and at most 5.52 in the test on HCT-116 cells.
For the molecule `O=C(/C=C/c1ccc2c(c1)C(=O)CC1(CCN(Cc3ccc(Cl)cc3)CC1)O2)NO` [Example 39, (E)-3-{1′-(4-Chloro-benzyl)-4-oxo-spiro[chromane-2,4′-piperidine]-6-yl}-N-hydroxy-acrylamide], the pIC50 in test [1] was 6.00 to 7.00; with K562 cells it was at least 6.00; in the test with A549 cells it was 5.52 to 6.00; in the test on HCT-116 cells it was at least 6.00.
